In brackets after ≈: the same amount, converted by molar mass. Read-outs that look alike come from different tables or passages of the source.
Tests used:
[1] = in vitro; type: in vitro ADME; settings: human, Caco-2, Caco-2 (2-7d) Papp
Description: To further evaluate potential behavior in human subjects, the transport through Caco-2 cells was evaluated for the putative prodrugs. Caco-2 cells are commonly used to evaluated the potential absorption/permeability of molecules (G. Gaviraghi et al. in Pharmacokinetic optimization in drug research. Biological, Pharmacokinetic and Computational Strategies. B. Testa et al. eds. Wiley Interscience VCH, Zurich 2001 pp 3-14).
Powders of Krebs-Henseleit buffer, calcium chloride dihydrate, and sodium bicarbonate were purchased from Sigma (St. Louis, Mo.). Caco-2 cells (Passage ˜100) were obtained from Roche Basel. DMEM/high medium, 4-(2-hydroxyethyl)-1-piperazineethane-sulfonic acid (HEPES), and bovine serum were obtained from JRH Bioscience (Lenexa, Kans.). MEM nonessential amino acids, L-glutamine, penicillin, and streptomycin were obtained from GIBCO Labs, Life Tech. LLC (Grand Island, N.Y.). Snapwell cell culture inserts ([…], 1.12 cm^2, 0.4 μm pore size) were obtained from Costar (Cambridge, Mass.).
Cells were grown in 75-cm^2 flasks and maintained at 37° C. in an atmosphere of 5% CO2 and 95% air. Culture media consisted of DMEM/high medium supplemented with 5% bovine serum, 25 mM HEPES, 1% MEM non-essential amino acids, 1% L-glutamine, 100 U/mL penicillin, and 100 μg/mL streptomycin. Cultures were passaged every week at a split ratio of 1-3. For the permeability studies, Caco-2 cells at passage number 110-120 were plated at a density of 400,000 cells/cm^2 on Transwell polycarbonate filters in Snapwell inserts and allowed to culture for 7 days prior to use.
Krebs-Henseleit bicarbonate buffer containing 10 mM glucose and 2.5 mM CaCl2 adjusted to pH 6.5 and 7.4 were prepared per packet instructions. Powder salts were quantitatively dissolved in about 90% of required volume with Millipore water. Calcium chloride dihydrate and sodium bicarbonate were added before pH adjustment with 1N HCl or 1N NaOH. Additional Millipore water was added to bring the solution to final volume. The solution was sterilized by filtration using membrane with a porosity of 0.22 microns and stored in the refrigerator ([…]) until use.
Differentiated cells were obtained from Cell Culture Core Facility and allowed to equilibrate at 37° C. in an atmosphere of 5% CO2 and 95% air. Snapwells inserts, containing caco-2 monolayers were rinsed in 37° C. equilibrated Krebs-Henseleit pH 7.4 buffer.
The cell insert was utilized as the diffusion chamber. The pH of the Krebs-Henseleit buffer in the apical and basolateral chambers was 6.5 and 7.4, respectively, and the initial concentration of substrate in apical side was 100 μM. […]
The Papp was calculated using the following formula: […]

[2] = Experimentally determined distribution coefficient; type: physicochemical; settings: octanol/buffered aqueous solution, pH 7.4; read-out: log D (distribution coefficient)
Text: The expression PO/W as used herein refers to the octanol/water partition coefficient. The expression clogP as used herein refers to the calculated PO/W. Computer programs which calculate PO/W are readily available to the pharmaceutical and medicinal chemist. The term distribution coefficient refers to the experimentally determined partition coefficient between octanol and a buffered aqueous solution. The partition coefficient and distribution coefficient are generally similar but the latter is a function of the pH of the aqueous solution whereas the PO/W is independent of pH.

[3] = Stability in simulated intestinal fluid; type: physicochemical; settings: simulated intestinal fluid pH 7.4, 37° C.; read-out: SIF T1/2 (converted)
Description: (§1) Particularly relevant are water solubility, partition coefficient and stability in gastric and intestinal fluids. […] The solubility in water of a orally administered prodrug should be greater than at least about 0.1 mg/mL for optimal formulation and the half-lives in simulated gastric fluid and simulated intestinal fluid should be 1-2 h and 2-4 h respectively to allow sufficient time to traverse the stomach and be absorbed in the intestine.

[4] = Stability in simulated gastric fluid; type: physicochemical; settings: simulated gastric fluid pH 1.2, 37° C.; read-out: SGF T1/2 (converted)
Description: as §1

[5] = Solubility; type: physicochemical
Description: as §1

[6] = tested on: HCV; settings: monotherapy; cited from earlier work
[7] = aqueous media, water, or buffer pH 6.5, read-out: Solubility
[8] = simulated gastric fluid (SGF), simulated gastric fluid, read-out: Solubility in SGF
[9] = simulated intestinal fluid (SIF), fassgf or other biorelevant, media is SIF, read-out: Solubility

Papp A→B at 30 min, 100 μM [1] [×10⁻⁶ cm/s]	logD [2]	half-life [3] [h]	half-life [4] [h]	solubility [5, 7] [µg/mL]	solubility [5, 8] [µg/mL]	melting point [°C]	SMILES	solubility [5, 9] [µg/mL]	reduces serum amino transferase levels to normal [6]	serum levels of HCV-RNA [6]
–	0.9	72	9	–	13600 (≈ 36.6 mM)	185.2 to 186	CCC(=O)OC[C@H]1O[C@@H](n2ccc(N)nc2=O)[C@](C)(F)[C@@H]1OC(=O)CC [I-3, Propionic acid (2R,3R,4R,5R)-5-(4-amino-2-oxo-2H-pyrimidin-1-yl)-4-fluoro-4-methyl-3-propionyloxy-tetrahydro-furan-2-ylmethyl ester]	3700 (≈ 9.96 mM)	–	–
13.4	–	> 11	> 10.4	130	–	192 to 194.4	CCCOC(=O)OC[C@H]1O[C@@H](n2ccc(N)nc2=O)[C@](C)(F)[C@@H]1OC(=O)OCCC.Cl [I-5, Carbonic acid (2R,3R,4R,5R)-5-(4-amino-2-oxo-2H-pyrimidin-1-yl)-4-fluoro-4-methyl-2-propoxycarbonyloxymethyl-tetrahydro-furan-3-yl ester propyl ester; hydrochloride salt]	–	–	–

Continued, compound first:

SMILES	Papp A→B at 30 min, 100 μM [1] [×10⁻⁶ cm/s]	logD [2]	half-life [3] [h]	half-life [4] [h]	solubility [5, 7] [µg/mL]	solubility [5, 8] [µg/mL]	melting point [°C]	solubility [5, 9] [µg/mL]	reduces serum amino transferase levels to normal [6]	serum levels of HCV-RNA [6]
CC(C)C(=O)OC[C@H]1O[C@@H](n2ccc(N)nc2=O)[C@](C)(F)[C@@H]1OC(=O)C(C)C [I-2, Isobutyric acid (2R,3R,4R,5R)-5-(4-amino-2-oxo-2H-pyrimidin-1-yl)-4-fluoro-3-isobutyryloxy-4-methyl-tetrahydro-furan-2-ylmethyl ester]	3.93	1.67	866	25.1	180 (≈ 0.451 mM)	13300 (≈ 33.3 mM)	–	–	–	–
CC(C)COC(=O)OC[C@H]1O[C@@H](n2ccc(N)nc2=O)[C@](C)(F)[C@@H]1OC(=O)OCC(C)C [I-4, Carbonic acid (2R,3R,4R,5R)-5-(4-amino-2-oxo-2H-pyrimidin-1-yl)-4-fluoro-2-isobutoxycarbonyloxymethyl-4-methyl-tetrahydro-furan-3-yl ester isobutyl ester]	6.4	–	> 15	> 7	–	160 (≈ 0.348 mM)	210 to 211.5	13 (≈ 0.0283 mM)	–	–
C[C@@]1(F)[C@H](O)[C@@H](CO)O[C@H]1n1ccc(N)nc1=O [I-6, 4-amino-1-((2R,3R,4R,5R)-3-fluoro-4-hydroxy-5-hydroxymethyl-3-methyl-tetrahydro-furan-2-yl)-1H-pyrimidin-2-one, reference compound]	0.4	–	> 12	> 12	76000 (≈ 293 mM)	–	–	–	–	–
NC(=O)c1ncn([C@@H]2O[C@H](CO)[C@@H](O)[C@H]2O)n1 [ribavirin, 1-((2R,3R,4S,5R)-3,4-Dihydroxy-5-hydroxymethyl-tetrahydro-furan-2-yl)-1H-[1,2,4]triazole-3-carboxylic acid amide]	–	–	–	–	–	–	–	–	40 % of patients	does not lower
